Where two headings read alike, the source gives them in different places.

One data set concerns MV4-11 cells. As to the kind of experiment: MTT cell viability assay, MV4-11 cells. It is filed as cell-based. The conditions noted are these: for sensitivity of MV4-11 cells (cell viability, in words): single agent. As for the experimental part: (§1) Briefly, effect of drugs alone and in combinations were determined for a 3-5 log scale of concentrations of drugs and with a constant ratio between the two drugs used for co-treatment. Cells were seeded in 96-well plates (50 000 cell/well). Cells were treated just after seeding, for 48 hours. Cell viability was determined with MTT assay. Cells were centrifuged 5 minutes at 1200 rpm, medium removed, 100 μl of MTT solution (1 mg/ml in PBS) added, incubated for 2 hours at 37° C., centrifuged, MTT solution removed and DMSO (100 μl) added to dissolve purple formazan formed by living cells. Absorbance of the solution was determined at 540 nm.
(§2) HL60, KG1, KG1a and MV4-11 cells were seeded in 96-well plates (50 000 cells/well). Cells were treated just after seeding with increasing doses of daunorubicin, for 48 hours. Cell viability was determined with MTT assay as follows: cells were centrifuged 5 minutes at 1200 rpm, medium removed, 100 μl of MTT solution (1 mg/ml in PBS) added, incubated for 2 hours at 37° C., centrifuged, MTT solution removed and DMSO (100 μl) added to dissolve purple formazan formed by living cells. Absorbance of the solution was determined at 540 nm.
(§3) HL60, KG1, KG1a and MV4-11 cells were seeded in 96-well plates (50 000 cells/well). Cells were treated just after seeding with increasing doses of cytarabine, for 48 hours.
(§4) HL60, KG1, KG1a and MV4-11 cells were seeded in 96-well plates (50 000 cells/well).
(§5) HL60, KG1, KG1a and MV4-11 cells were seeded in 96-well plates (50 000 cells/well). Cells were treated just after seeding with increasing doses of cisplatin, for 48 hours.
(§6) HL60, KG1, KG1a and MV4-11 cells were seeded in 96-well plates (50 000 cells/well). Cells were treated just after seeding with increasing doses of Dendrogenin A, for 48 hours.
(§7) MV4-11 cells were seeded in 96-well plates (50 000 cells/well).
as §7

The subject of the next data set is KG1 cells. As to the kind of experiment: MTT cell viability assay, KG1 cells. It counts as cell-based. The conditions noted are these: 48 hours. As for the experimental part: as §1, §2, §3, §4, §5, §6
(§8) KG1 cells were seeded in 96-well plates (50 000 cells/well).
as §8, §8
KG1 cells were seeded in 96-well plates (50 000 cells/well). Cells were treated just after seeding with increasing doses of Dendrogenin A and Cisplatin, for 48 hours.
as §8
KG1 cells were seeded in 96-well plates (50 000 cells/well). Cells were treated just after seeding with increasing doses of Dendrogenin A and arsenic trioxide, for 48 hours.
as §8
For orientation: Tetrazolium dyes change colour on reduction, which living cells bring about.

For a further data set, the system named is KG1a cells. As to the kind of experiment: MTT cell viability assay, KG1a cells. It is filed as cell-based. The conditions noted are these: for sensitivity of KG1a cells compared to KG1 cells (cell viability, in words): single agent. As for the experimental part:
as §1, §2, §3, §4, §5, §6
(§9) KG1a cells were seeded in 96-well plates (50 000 cells/well).
as §9
KG1a cells were seeded in 96-well plates (50 000 cells/well). […]

A further data set concerns HL60 cells. As to the kind of experiment: MTT cell viability assay, HL60 cells. It is filed as cell-based. As for the experimental part:
as §1, §2, §3, §4, §5, §6
(§10) HL60 cells were seeded in 96-well plates (50 000 cells/well).
HL60 cells were seeded in 96-well plates (50 000 cells/well). Cells were treated just after seeding with increasing doses of Dendrogenin A and Cisplatin, for 48 hours.
as §10
HL60 cells were seeded in 96-well plates (50 000 cells/well). Cells were treated just after seeding with increasing doses of Dendrogenin A and arsenic trioxide, for 48 hours.
as §10

Data set [1] relates to chemoresistant cancer cell line KG1a. As to the kind of experiment: Cell death induction, Trypan blue counting, KG1a cells. It is filed as cell-based. The conditions noted are these: 48 hours; for cell death induction by the antineoplastic agent alone: KG1a, Daunorubicin 0.5 μM or cytarabine 1 μM. As for the experimental part: In a 6-microwell plate was seeded 0.5·10^6 cells of KG1a cell line. The same day, Solvant vehicule or different concentrations of Dendrogenin A (final concentrations: 5 and 10 μM) alone or in combination with Daunorubicin (final concentration: 0.5 μM) or cytarabine (final concentration: 1 μM) were added into the well. After 48 hours of incubation, the cells suspensions were centrifuged and cell pellets were resuspended in the Trypan blue solution (0.25% (w/v) in PBS) and counted in a Malassez cell under a light microscope.

For data set [2], the system named is drug sensitive cancer cell line KG1. As to the kind of experiment: Cytotoxic activity, Trypan blue counting, KG1 cells. The conditions noted are these: for cytotoxic activity of the antineoplastic agent alone: KG1, Daunorubicin 0.05-0.5 μM or cytarabine 0.1-1 μM, 48 hours. As for the experimental part:
In a 6-microwell plate was seeded 0.5.10^6 cells of KG1 cell line. […] Then, Daunorubicin (final concentration: 0.05, 0.1, 0.25 and 0.5 μM) or cytarabine (final concentration: 0.1, 0.2, 0.5 and 1 μM) were added to […]. After the cells were cultured for additional 48 hours, culture suspensions were centrifuged and cell pellets were resuspended in the Trypan blue solution (0.25% (w/v) in PBS) and counted in a Malassez cell under a light microscope.

The next data set concerns AML patient cells. As to the kind of experiment: Cell death of AML patient samples, Annexin V-FitC/7-AAD flow cytometry. It counts as cell-based. The conditions noted are these: Dendrogenin A 5 μM alone, 48 hours. The method, then: In a 6-microwell plate were seeded 0.5.10^6 patient cells. The same day, Solvant vehicle or different concentrations of Dendrogenin A (final concentrations: 5 μM) alone or in combination with Daunorubicin (final concentration: 10 nM) were added into the well. After 48 hours of incubation, the cells suspensions were centrifuged and washed with PBS and cell pellets were resuspended in a labeling solution containing Annexin V-FitC and 7-AAD as described in the kit protocol (Annexin V-FitC/7-AAD staining kit, Roche Applied Science). Cells were then incubated for 15 minutes at room temperature in the dark and analyzed by Facs Flow cytometry.
(In general: In flow cytometry, cells or beads pass a laser one at a time.)

Data set [3] deals with cholesterol epoxide hydrolase (Homo sapiens, UniProt Q15125). The conditions noted are these: de Medina et al., Nature Communications, 2013; cited from earlier work.
Sequence of cholesterol epoxide hydrolase (Q15125 whole entry): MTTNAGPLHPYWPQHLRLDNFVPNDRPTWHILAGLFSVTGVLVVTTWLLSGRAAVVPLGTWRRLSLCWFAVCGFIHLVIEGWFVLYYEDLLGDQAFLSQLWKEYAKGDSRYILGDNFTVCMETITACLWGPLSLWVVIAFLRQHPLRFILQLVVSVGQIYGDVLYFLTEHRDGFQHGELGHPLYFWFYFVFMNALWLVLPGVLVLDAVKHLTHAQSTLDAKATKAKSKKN
Where [4] appears, read: Homo sapiens, KG-1, KG1 cell line.
[5] abbreviates: Homo sapiens, KG-1a, KG1a cell line, 48 hours, MTT, read-out: IC 50.

For `O=c1[nH]cc(F)c(=O)[nH]1` [5-Fluorouracil], the IC50 with MV4-11 cells (Homo sapiens, MV4-11, 48 h) amounted to 2160 µM; with KG1 cells (setting [4]) it was 756 µM; with KG1a cells (Homo sapiens, KG-1a, 48 h, heading: IC 50, KG1a cell line, 48 hours, MTT, read-out: IC 50), 3.99 µM; in the data set with HL60 cells (Homo sapiens, HL-60, 48 h) it was 2450 µM. Besides, the “sensitivity of MV4-11 cells (cell viability, in words)” value (shortened to “sensitivity of MV4-11 cells”) with MV4-11 cells (48 hours, MTT) was “more resistant to 5-FU compared to Daunorubicin or Cytarabine”. Besides, in the data set on KG1a cells (48 hours, MTT), the “sensitivity of KG1a cells compared to KG1 cells (cell viability, in words)” value is on record as “resistant”. The “sensitivity of HL60 cells (cell viability, in words)” value (shortened to “sensitivity of HL60 cells”) in the data set on HL60 cells (single agent, 48 hours, MTT) was “more resistant to 5-FU compared to Daunorubicin or Cytarabine”.

In the case of `N.N.[Cl][Pt][Cl]` [Cisplatin], the IC50 with MV4-11 cells (MV4-11 cell line, 48 hours, MTT, read-out: IC 50) worked out at 7.2 µM; in the data set on KG1 cells (KG1 cell line), 3.29 µM; in the data set on KG1a cells (KG1a cell line, 48 hours, MTT, read-out: IC 50) it was 9.59 µM; with HL60 cells (read-out: IC 50), 3.29 µM. The “sensitivity of MV4-11 cells” value with MV4-11 cells (48 hours, MTT) is recorded as “more resistant to Cisplatin compared to Daunorubicin or Cytarabine”. The “sensitivity of KG1a cells compared to KG1 cells (cell viability, in words)” value in the data set with KG1a cells (48 hours, MTT) is “resistant”. Also, in the data set on HL60 cells, the “sensitivity of HL60 cells” value was “as sensible to Cisplatin as to Daunorubicin and Cytarabine”.

For `Nc1ccn([C@@H]2O[C@H](CO)[C@@H](O)[C@@H]2O)c(=O)n1` [Cytarabine], the IC50 in the data set with MV4-11 cells (Homo sapiens, MV4-11, 48 h) came out at 0.18 µM; in the data set with KG1 cells (setting [4]), 0.34 µM; in the data set with KG1a cells (setting [5]), 1.53 µM; in the data set on HL60 cells (Homo sapiens, HL-60, 48 h) it was 0.16 µM. In addition, the “sensitivity of MV4-11 cells” value in the data set on MV4-11 cells (48 hours, MTT) was “more sensitive than KG1 cells”. For the same compound, in the data set on KG1a cells (48 hours, MTT), the “sensitivity of KG1a cells compared to KG1 cells (cell viability, in words)” value is recorded as “resistant”. Also, the “sensitivity of HL60 cells” value in the data set on HL60 cells (single agent, 48 hours, MTT) is reported as “more sensitive than KG1 cells”. For the same compound, the “cell death induction by the antineoplastic agent alone” value in data set [1] was “resistant”. Further, the “cytotoxic activity of the antineoplastic agent alone” value in data set [2] is “sensitive”.

For `COc1cccc2c1C(=O)c1c(O)c3c(c(O)c1C2=O)C[C@@](O)(C(C)=O)C[C@@H]3O[C@H]1C[C@H](N)[C@H](O)[C@H](C)O1` [Daunorubicin], the IC50 with MV4-11 cells (Homo sapiens, MV4-11, 48 h) came out at 0.067 µM; in the data set on KG1 cells (setting [4]), 0.064 µM; in the data set with KG1a cells (Homo sapiens, KG-1a, 48 h), 1.08 µM; in the data set with HL60 cells (Homo sapiens, HL-60, 48 h), 0.062 µM. For the same compound, the “sensitivity of MV4-11 cells” value with MV4-11 cells (48 hours, MTT) was “as sensitive as KG1 cells”. The “sensitivity of KG1a cells compared to KG1 cells (cell viability, in words)” value in the data set on KG1a cells (48 hours, MTT) is reported as “resistant”. For the same compound, the “sensitivity of HL60 cells” value in the data set on HL60 cells is “as sensitive as KG1 cells”. The “cell death induction by the antineoplastic agent alone” value in data set [1] is recorded as “resistant”. The “cytotoxic activity of the antineoplastic agent alone” value in data set [2] is “sensitive”.

With `CC(C)CCC[C@@H](C)[C@H]1CC[C@H]2[C@@H]3C[C@@H](NCCc4cnc[nH]4)[C@@]4(O)C[C@@H](O)CC[C@]4(C)[C@H]3CC[C@]12C` [Dendrogenin A, 5α-hydroxy-6β-[2-(1H-imidazol-4-yl)ethylamino]cholestan-3β-ol], the IC50 in the data set on MV4-11 cells (Homo sapiens, MV4-11 cell line, 48 hours, MTT, read-out: IC 50) was determined as 7.27 µM; with KG1 cells (setting [4]), 8.86 µM; in the data set with KG1a cells (setting [5]) it was 13.2 µM; in the data set with HL60 cells (Homo sapiens, HL-60, HL60 cell line, 48 hours, MTT, read-out: IC 50), 8.06 µM. Besides, the “sensitivity of MV4-11 cells” value in the data set with MV4-11 cells (48 hours, MTT) is “as sensitive as KG1 or KG1a cells”. The “sensitivity of KG1a cells compared to KG1 cells (cell viability, in words)” value in the data set with KG1a cells (48 hours, MTT) is reported as “as sensitive as KG1 cells”. Also, the “sensitivity of HL60 cells” value with HL60 cells (single agent, 48 hours, MTT) is listed as “as sensitive as KG1 or KG1a cells”. The “effect on resistance of KG1a cells to Daunorubicin” value in data set [1] (Dendrogenin A 5 and 10 μM with Daunorubicin 0.5 μM) was “able to abolish this resistance”. Moreover, the “effect on resistance of KG1a cells to Cytarabine” value in data set [1] (Dendrogenin A 5 and 10 μM with cytarabine 1 μM) is given as “able to abolish this resistance”. The “effect on sensibility of KG1 cells to Daunorubicin” value in data set [2] (Dendrogenin A 2.5 μM for 24 hours, then Daunorubicin 0.05-0.5 μM for 48 hours) is recorded as “able to increase this sensibility”. Moreover, the “effect on sensibility of KG1 cells to Cytarabine” value in data set [2] (Dendrogenin A 2.5 μM for 24 hours, then cytarabine 0.1-1 μM for 48 hours) is given as “able to increase this sensibility”. The “cell death rate of tumor cells resistant to Daunorubicin” value in the data set on AML patient cells is “high or moderate cell death rate”. Also, the “inhibition of cholesterol epoxide hydrolase” value in data set [3] was “selective inhibitor”.
